pIC50: −log10 of the molar value.
Molecular target: human SARM1(50-724) (Homo sapiens (Human), UniProt Q6SZW1)
Experiment: SARM1 NAD hydrolase biological assay (HPLC readout of NAD and NAM peak areas)
Type: biochemical
Conditions: 40 nM human SARM1(50-724), 0.3 mM NMN, 20 μM NAD, 60 minutes at room temperature; class symbols; read-out: Average IC50
Description: The reaction was incubated at room temperature for 60 minutes and quenched with 20 μL of 0.4% formic acid. […] Total run time for each sample was 4 minutes. The run was isocratic with 1.5% methanol in 40 mM ammonium acetate pH 6.0. Samples were run at a flow rate of 0.8 ml/min at 55° C. Peak areas of NAD and NAM were determined using OpenLAB CDS (Chem Station edition) software. For dose-response, the compound was diluted serially 1:3 in DMSO and added to the reaction starting at a final compound concentration of 100 μM in 1% DMSO.

human SARM1(50-724), sequence (Q6SZW1 50-724): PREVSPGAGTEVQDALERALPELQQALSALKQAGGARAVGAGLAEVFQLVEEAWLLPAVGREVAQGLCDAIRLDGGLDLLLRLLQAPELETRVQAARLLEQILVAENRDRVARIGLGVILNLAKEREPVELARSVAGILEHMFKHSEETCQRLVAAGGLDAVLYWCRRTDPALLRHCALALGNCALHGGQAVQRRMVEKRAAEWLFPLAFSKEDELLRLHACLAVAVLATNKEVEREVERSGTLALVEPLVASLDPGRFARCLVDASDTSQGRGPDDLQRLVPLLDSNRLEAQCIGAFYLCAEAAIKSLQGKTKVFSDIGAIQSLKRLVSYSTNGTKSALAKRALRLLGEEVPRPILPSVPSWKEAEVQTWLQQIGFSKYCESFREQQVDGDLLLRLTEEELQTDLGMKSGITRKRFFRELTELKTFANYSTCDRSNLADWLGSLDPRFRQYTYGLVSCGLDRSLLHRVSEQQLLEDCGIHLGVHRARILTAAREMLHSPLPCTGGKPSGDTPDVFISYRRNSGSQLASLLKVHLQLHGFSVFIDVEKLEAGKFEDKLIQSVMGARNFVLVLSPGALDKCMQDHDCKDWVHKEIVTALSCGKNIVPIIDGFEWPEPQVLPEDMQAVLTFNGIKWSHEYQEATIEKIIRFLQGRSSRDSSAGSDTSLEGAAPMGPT

Fc1cnccc1Cc1c[nH]c(CC(F)(F)F)n1 [Example 36, 3-Fluoro-4-((2-(2,2,2-trifluoroethyl)-1H-imidazol-4-yl)methyl)pyridine]
pIC50: > 6.00

OC(c1nc(Cc2ccncc2)c[nH]1)(C(F)(F)F)C(F)(F)F [Example 39, 1,1,1,3,3,3-Hexafluoro-2-(4-(pyridin-4-ylmethyl)-1H-imidazol-2-yl)propan-2-ol]
pIC50: 5.00 to 6.00

Source: patent US11629136B1, “Substituted pyridine derivatives as SARM1 inhibitors” (Nura Bio, Inc., priority 2021, dated 2023)
